Measurements: patent publication US4672058A, “N[[5-(trifluoromethyl)-6-methoxy-1-naphthalenyl]-thioxomethyl]-N -methylglycinamides” (American Home Products Corporation, priority 1985, dated 1987)

Tests used:
accumulation of dulcitol = assay: Lowering of dulcitol accumulation in lens, sciatic nerve and diaphragm of galactosemic rats (in vivo); parameters: species or system rat (Sprague-Dawley, male); settings: for % lowering dulcitol accumulation in vivo, D: diaphragm
Description: Such experiments are exemplified hereinbelow after the listing of the following general comments pertaining to these experiments:
(a) Four or more groups of six male rats, 50-70 g, Sprague-Dawley strain, were used. The first group, the control group, was fed a mixture of laboratory chow (rodent Laboratory Chow, Purina) and glucose at 20% (w/w %) concentration. The untreated galactosemic group was fed a similar diet in which galactose is substituted for glucose. The third group was fed a diet prepared by mixing a given amount of the test compound with the galactose containing diet. The concentration of galactose in the diet of the treated groups was the same as that for the untreated galactosemic group.
(b) After four days, the animals were killed by decapitation. The eyeballs were removed and punctured with a razor blade; the freed lenses were rolled gently on filter paper and weighed. The sciatic nerves were dissected as completely as possible and weighed. Both tissues when frozen can be kept up to two weeks before being analyzed for dulcitol.
(c) The polyol determination was performed by a modification of the procedure of M. Kraml and L. Cosyns, Clin. Biochem., 2,373 (1969). Only two minor reagent changes were made: (a) The rinsing mixture was an aqueous 5% (w/v) trichloroacetic acid solution and (b) the stock solution was prepared by dissolving 25 mg of dulcitol in 100 ml of an aqueous trichloroacetic acid solution. [N.B.: For each experiment the average value found in the tissue from rats fed the glucose diet was subtracted from the individual values found in the corresponding tissue in galactose-fed rats to obtain the amount of polyol accumulated.] […] In the present case the procedure of Hayman and Kinoshita was modified in that the final chromatography step was omitted in the preparation of the enzyme from bovine lens.
The figures under L, N and D represent the percentage decrease of dulcitol accumulation in the tissues of the lens, sciatic nerve and diaphragm, respectively, for treated rats as compared to untreated rats.

aldose reductase = settings: literature, in words; cited from earlier work

COC(=O)NC(=O)CN(C)C(=S)c1cccc2c(C(F)(F)F)c(OC)ccc12 [Compound 6, [[[5-(Trifluoromethyl)-6-methoxy-1-naphthalenyl]thioxomethyl](methylamino)acetyl]carbamic acid, Methyl Ester]
% lowering dulcitol accumulation in vivo, D (accumulation of dulcitol; 8.4 mg/kg/day in diet, 4 days): 69% | % lowering dulcitol accumulation in vivo, D (accumulation of dulcitol; 26 mg/kg/day in diet, 4 days): 88%

COc1ccc2c(C(=S)N(C)CC(=O)NC(N)=O)cccc2c1C(F)(F)F [Compound 5, [[[5-(Trifluoromethyl)-6-methoxy-1-naphthalenyl]thioxomethyl](methylamino)acetyl]urea]
% lowering dulcitol accumulation in vivo, D (accumulation of dulcitol; 23 mg/kg/day in diet, 4 days): 64%

O=C(O)CN1C(=O)c2cccc3cccc(c23)C1=O [1,3-Dioxo-1H-benz[de]isoquinoline-2(3H)-acetic acid]
inhibition of aldose reductase, as reported (aldose reductase): effective inhibitor of aldose reductase

COc1ccc2c(C(=S)N(C)CC(=O)N(C)C)cccc2c1C(F)(F)F [Compound 3, 2-[[[6-Methoxy-5-(trifluoromethyl)-1-naphthalenyl]thioxomethyl]methylamino]-N,N-dimethylacetamide]
% lowering dulcitol accumulation in vivo, D (accumulation of dulcitol; 55 mg/kg/day in diet, 4 days): 85%

COC(=N)NC(=O)CN(C)C(=S)c1cccc2c(C(F)(F)F)c(OC)ccc12 [Compound 4, N-[[[[5-(Trifluoromethyl)-6-methoxy-1-naphthalenyl]thioxomethyl]methylamino]acetyl]carbamimidic Acid, Methyl Ester]
% lowering dulcitol accumulation in vivo, D (accumulation of dulcitol; 26 mg/kg/day in diet, 4 days): 76% | % lowering dulcitol accumulation in vivo, L (accumulation of dulcitol; lens, 26 mg/kg/day in diet, 4 days): 13%

COc1ccc2c(C(=S)N(C)CC(=O)N[C@H]3C(O)O[C@H](CO)[C@@H](O)[C@@H]3O)cccc2c1C(F)(F)F (stereo partly drawn) [Compound 7, 2-Deoxy-2-[[[[[6-methoxy-5-(trifluoromethyl)-1-naphthalenyl]thioxomethyl]methylamino]acetyl]amino]-D-glucose]
% lowering dulcitol accumulation in vivo, D (accumulation of dulcitol; 161 mg/kg/day in diet, 4 days): 37%

COc1ccc2c(C(=S)N(C)CC(N)=O)cccc2c1C(F)(F)F [Compound 1, N-[[5-(trifluoromethyl)-6-methoxy-1-naphthalenyl]-thioxomethyl]-N-methylglycinamide]
% lowering dulcitol accumulation in vivo, D (accumulation of dulcitol; 5 mg/kg/day in diet, 4 days): 66% | results compared with N-[[5-(trifluoromethyl)-6-methoxy-1-naphthalenyl]-thioxomethyl]-N-methylglycine (tolrestat) (accumulation of dulcitol; dose of 5 mg/kg/day, in words): comparable results

O=C1NC(=O)[C@@]2(CCOc3ccc(F)cc32)N1 [sorbinil, (S)-6-Fluoro-2,3-dihydrospiro(4H-1-benzopyran-4,4'-imidazolidine)-2',5'-dione]
inhibition of aldose reductase, as reported (aldose reductase): aldose reductase inhibiting properties
